Reference: PubChem BioAssay (NCI)
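Step 1: Grow cells in 96-well plates. Step 2: Expose to compound for 48 hours at 5 concentrations. Step 3: Interpolate endpoints linearly; if unreached, use highest concentration. GI50 marks 50% less growth. TGI: concentration producing complete growth inhibition.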

Tests used:
Assay in all cases: growth of human tumour cells (NCI), 48 h
NCI-H460 lung = tested on: NCI-H460 lung
NCI-H522 lung = tested on: NCI-H522 lung
NCI/ADR-RES ovarian = tested on: NCI/ADR-RES ovarian
OVCAR-3 ovarian = tested on: OVCAR-3 ovarian
OVCAR-4 ovarian = tested on: OVCAR-4 ovarian
OVCAR-5 ovarian = tested on: OVCAR-5 ovarian
OVCAR-8 ovarian = tested on: OVCAR-8 ovarian
PC-3 prostate = tested on: PC-3 prostate
RPMI-8226 leukemia = tested on: RPMI-8226 leukemia
RXF 393 renal = tested on: RXF 393 renal
SF-268 CNS = tested on: SF-268 CNS
SF-295 CNS = tested on: SF-295 CNS
SF-539 CNS = tested on: SF-539 CNS
SK-MEL-2 melanoma = tested on: SK-MEL-2 melanoma
SK-MEL-28 melanoma = tested on: SK-MEL-28 melanoma
SK-MEL-5 melanoma = tested on: SK-MEL-5 melanoma
SK-OV-3 ovarian = tested on: SK-OV-3 ovarian
SN12C renal = tested on: SN12C renal
SNB-19 CNS = tested on: SNB-19 CNS
SNB-75 CNS = tested on: SNB-75 CNS
SR leukemia = tested on: SR leukemia
SW-620 colon = tested on: SW-620 colon
T-47D breast = tested on: T-47D breast
TK-10 renal = tested on: TK-10 renal
U251 CNS = tested on: U251 CNS
UACC-257 melanoma = tested on: UACC-257 melanoma
UACC-62 melanoma = tested on: UACC-62 melanoma
UO-31 renal = tested on: UO-31 renal

In the case of `C/C1=C\CC[C@@](C)(O)[C@H]2C[C@H](CC/C(C)=C/CC1)C1(CC1)C(=O)O2`, the GI50 (NCI-H460 lung) is reported as 19.6 µM, the TGI (NCI-H460 lung) is reported as 45.7 µM and the GI50 (NCI-H522 lung) is reported as 23.1 µM. It also gave a TGI (NCI-H522 lung) of 62.9 µM, a GI50 (NCI/ADR-RES ovarian) of 23.6 µM and a TGI (NCI/ADR-RES ovarian) of 57.4 µM. The GI50 (OVCAR-3 ovarian) was 25.2 µM, the TGI (OVCAR-3 ovarian) was 84.7 µM and the GI50 (OVCAR-4 ovarian) was 63.4 µM. The TGI (OVCAR-4 ovarian) was > 100 µM, the GI50 (OVCAR-5 ovarian) was 31.4 µM and the TGI (OVCAR-5 ovarian) was 80 µM. The GI50 (OVCAR-8 ovarian) was 20 µM, the TGI (OVCAR-8 ovarian) was 40.8 µM and the GI50 (PC-3 prostate) was 14.8 µM. The TGI (PC-3 prostate) was 32.4 µM, the GI50 (RPMI-8226 leukemia) was 14.2 µM and the TGI (RPMI-8226 leukemia) was 35.8 µM. It also gave a GI50 (RXF 393 renal) of 18.4 µM, a TGI (RXF 393 renal) of 42.8 µM and a GI50 (SF-268 CNS) of 19.3 µM. For the same molecule, the TGI (SF-268 CNS) was 41.2 µM, the GI50 (SF-295 CNS) was 19.3 µM and the TGI (SF-295 CNS) was 46.7 µM. It also gave a GI50 (SF-539 CNS) of 17.1 µM, a TGI (SF-539 CNS) of 33.5 µM and a GI50 (SK-MEL-2 melanoma) of 39.1 µM. The TGI (SK-MEL-2 melanoma) was > 100 µM, the GI50 (SK-MEL-28 melanoma) was 45.3 µM and the TGI (SK-MEL-28 melanoma) was > 100 µM. For the same molecule, the GI50 (SK-MEL-5 melanoma) was 18.6 µM, the TGI (SK-MEL-5 melanoma) was 35.1 µM and the GI50 (SK-OV-3 ovarian) was > 100 µM. The TGI (SK-OV-3 ovarian) was > 100 µM, the GI50 (SN12C renal) was 20.3 µM and the TGI (SN12C renal) was 43.2 µM. The GI50 (SNB-19 CNS) was 85.6 µM, the TGI (SNB-19 CNS) was > 100 µM and the GI50 (SNB-75 CNS) was 44.2 µM. The TGI (SNB-75 CNS) was > 100 µM, the GI50 (SR leukemia) was 14.1 µM and the TGI (SR leukemia) was 32.6 µM. The GI50 (SW-620 colon) was 21.8 µM, the TGI (SW-620 colon) was 46.2 µM and the GI50 (T-47D breast) was 36.5 µM. The TGI (T-47D breast) was > 100 µM, the GI50 (TK-10 renal) was 32.9 µM and the TGI (TK-10 renal) was > 100 µM. For the same molecule, the GI50 (U251 CNS) was 17.5 µM, the TGI (U251 CNS) was 37.1 µM and the GI50 (UACC-257 melanoma) was 19.4 µM. For the same molecule, the TGI (UACC-257 melanoma) was 67.2 µM, the GI50 (UACC-62 melanoma) was 23.9 µM and the TGI (UACC-62 melanoma) was 99.8 µM. The GI50 (UO-31 renal) was 18.2 µM and the TGI (UO-31 renal) was 33.8 µM.
